Source: EP0596112A1, “NOVEL MACROLIDE COMPOUND AND PRODUCTION THEREOF” (YAMANOUCHI PHARMACEUTICAL CO. LTD., priority 1991, dated 1992)
Values after ≈ are worked out from the molar mass of the structure shown.

Assays:
[1] = Solubility (physicochemical properties)
[2] = test system: Serratia marcescens IID620; experiment: In vitro antibacterial activity (MIC), agar plate dilution method using Müller-Hinton medium; assay type: cell-based
Description: (§1) In vitro antibacterial activity (MIC) The antibacterial spectrum of the macrolide compound of the present invention was determined by the agar plate dilution method using Müller-Hinton medium which is commonly used for this purpose.

[3] = test system: Klebsiella pneumoniae ATTCC10031; experiment: as above; assay type: cell-based
Description: as §1

[4] = test system: Staphylococcus aureus FDA 209P; experiment: as above; assay type: cell-based; conditions: FDA209P
Description: as §1

[5] = test system: Streptococcus pyogenes Cook; experiment: as above; assay type: cell-based
Description: as §1

[6] = test system: Proteus vulgalis OX-19; experiment: as above; assay type: cell-based
Description: as §1

[7] = test system: Streptococcus pneumoniae IID552; experiment: as above; assay type: cell-based
Description: as §1

[8] = test system: Enterococcus faecalis IID682; experiment: as above; assay type: cell-based
Description: as §1

[9] = test system: Staphylococcus epidermidis IID866; experiment: as above; assay type: cell-based
Description: as §1

[10] = test system: Pseudomonas aeruginosa IID5142; experiment: as above; assay type: cell-based
Description: as §1

[11] = test system: Escherichia coli 0-1; experiment: as above; assay type: cell-based; conditions: 01
Description: as §1

[12] = test system: Staphylococcus aureus FDA 209P JC-1; experiment: as above; assay type: cell-based; conditions: FDA209P
Description: as §1

[13] = in methanol, ethanol, acetone, ethyl acetate, benzene, toluene and chloroform

| Solubility [1, 13] | Solubility ([1]; in water and hexane) | MIC [2] [µg/mL] | MIC [3] [µg/mL] | MIC [4] [µg/mL] | MIC [5] [µg/mL] | MIC [6] [µg/mL] | MIC [7] [µg/mL] | MIC [8] [µg/mL] | MIC [9] [µg/mL] | MIC [10] [µg/mL] | MIC [11] [µg/mL] | MIC [12] [µg/mL] | SMILES |
| --- | --- | --- | --- | --- | --- | --- | --- | --- | --- | --- | --- | --- | --- |
| Soluble | only sparingly soluble | > 100 | > 100 | 0.78 (≈ 0.81 µM) | 0.39 (≈ 0.405 µM) | > 100 | 3.13 (≈ 3.25 µM) | 1.56 (≈ 1.62 µM) | 0.78 (≈ 0.81 µM) | > 100 | > 100 |  | COC1C(OCC(C)C2OC(=O)C(C)C(OC3CC(C)(O)C(O)C(C)O3)C(C)C(OC3OC(C)CC(=O)C3O)C(C)CC(C)(O)C(=O)C(C)C(OC(=O)CC(C)C)C2C)OC(C)C(O)C1OC (stereo not drawn) [YL-02107Q substance] |
| Soluble | only sparingly soluble | > 50 | > 50 |  | 0.78 (≈ 0.822 µM) | > 50 | 50 (≈ 52.7 µM) | 25 (≈ 26.3 µM) | 3.13 (≈ 3.3 µM) | > 50 | > 50 | 3.13 (≈ 3.3 µM) | COC1C(OCC(C)C2OC(=O)C(C)C(OC3CC(O)C(O)C(C)O3)C(C)C(OC3OC(C)CC(=O)C3O)C(C)CC(C)(O)C(=O)C(C)C(OC(=O)CC(C)C)C2C)OC(C)C(O)C1OC (stereo not drawn) [YL-02107Q-B substance] |
| Soluble | only sparingly soluble | > 50 | > 50 |  | 0.78 (≈ 0.887 µM) | > 50 | > 50 | > 50 | 1.56 (≈ 1.77 µM) | > 50 | > 50 | 3.13 (≈ 3.56 µM) | COC1C(OCC(C)C2OC(=O)C(C)C(OC3CC(C)(O)C(O)C(C)O3)C(C)C(OC3OC(C)CC(=O)C3O)C(C)CC(C)(O)C(=O)C(C)C(O)C2C)OC(C)C(O)C1OC (stereo not drawn) [YL-02107Q-D substance] |
